Like-named read-outs stand apart in the source and are kept apart here. Bounds are passed on as bounds.

Results on 24 compounds are retold here after US20240034743A9, “TRICYCLIC COMPOUNDS AS EGFR INHIBITORS” (QILU PHARMACEUTICAL CO., LTD., priority 2020, published 2024).

Type in all cases: cell-based
The subject of one test is A431 cells (EGFR WT). The test is described as follows: A431 cell proliferation inhibition assay (CellTiter-Glo). Particulars: Homo sapiens. How it is done:
A431 Cell Proliferation Inhibition Assay
In the assay, the inhibition effect of the compounds on the proliferation of A431 cells was tested by adopting a CellTiter-Glo method, and the concentration IC50 of the compound for inhibiting half maximal growth of cells was obtained.
A431 cells, purchased from ATCC.
DMEM medium, fetal bovine serum (FBS), and Penicillin-Streptomycin, purchased from GIBCO.
(§1) Brigatinib, purchased from Selleck.
(§2) CellTiter-Glo reagent, purchased from Promega.
1) A431 cells were seeded in a 384-well plate at a density of 800 cells/well with 30 μL/well, and the plate was cultured in a cell incubator for 24 h (37° C., 5% CO2).
(§3) 2) Day 0: […] of gradiently-diluted compounds to be tested with a final concentration of DMSO of 0.1% was added to plate using Echo, and the plate was incubated in a cell incubator for 72 h (37° C., 5% CO2). […] of DMSO was added into each well in blank control group.
(§4) 3) Day 3: 30 μL Cell Titer-Glo reagent was added to each well, and the plate was in the dark under room temperature for 30 min.
(§5) 4) The chemiluminescent signal was detected by an Envision plate reader (PerkinElmer).
(§6) 5) Data analysis was performed using GraphPad Prism software to give the IC50 for compounds.
Background: Cellular ATP, detected with luciferase, serves as a proxy for viable cell number.

In test [1] the test system is Ba/F3_L858R/T790M/C797S cells. The test is described as follows: Ba/F3_L858R/T790M/C797S cell proliferation inhibition assay (CellTiter-Glo). The following applies: Mus musculus. How it is done:
Ba/F3_L858R/T790M/C797S Cell Proliferation Inhibition Assay
In the assay, the inhibition effect of the compounds on the proliferation of Ba/F3_L858R/T790M/C797S cells was tested by adopting a CellTiter-Glo method, and the concentration IC50 of the compound for inhibiting half maximal growth of cells was obtained.
Ba/F3_L858R/T790M/C797S cells were constructed by Pharmaron Beijing Co., Ltd.
1640 medium, fetal bovine serum (FBS), Penicillin-Streptomyces, and GlutaMAX-I Supplement, purchased from GIBCO.
as §1, §2
1) Ba/F3_L858R/T790M/C797S cells were seeded in a 384-well plate at a density of 700 cells/well with 30 μL/well.
as §3, §4, §5, §6

The test system of test [2] is Ba/F3_Del19/T790M/C797S cells. Nature of the test: Ba/F3_Del19/T790M/C797S cell proliferation inhibition assay (CellTiter-Glo). Particulars: Mus musculus. How it is done:
Ba/F3_Del19/T790M/C797S Cell Proliferation Inhibition Assay
In the assay, the inhibition effect of the compounds on the proliferation of Ba/F3_Del19/T790M/C797S cells was tested by adopting a CellTiter-Glo method, and the concentration IC50 of the compound for inhibiting half maximal growth of cells was obtained.
Ba/F3_Del19/T790M/C797S, purchased from Kyinno Biotechnology Co., Ltd. 1640 medium, fetal bovine serum (FBS), Penicillin-Streptomyces, and GlutaMAX-I Supplement, purchased from GIBCO.
as §1, §2
1) Ba/F3_Del19/T790M/C797S cells were seeded in a 384-well plate at a density of 700 cells/well with 30 μL/well.
as §3, §4, §5
Data analysis was performed using GraphPad Prism 6 software to give the IC50 for compounds.

The mark [3] stands for this setting: A-431, cell proliferation, 72 h, CellTiter-Glo, read-out: A431 EGFR WT IC50.
Setting [4] is: BaF3, cell proliferation, 72 h, CellTiter-Glo, read-out: Ba/F3 (L858R/T790M/C797S) IC50.
The mark [5] stands for this setting: BaF3, cell proliferation, 72 h, CellTiter-Glo, read-out: Ba/F3 (Del19/T790M/C797S) IC50.
The mark [6] stands for this setting: A-431, 72 h, read-out: A431 EGFR WT IC50(nM).
[7] abbreviates: BaF3, 72 h, read-out: Ba/F3 (L858R/T790M/C797S) IC50(nM).
[8] abbreviates: BaF3, 72 h, read-out: Ba/F3 (Del19/T790M/C797S) IC50(nM).

As for `COc1cc2c(cc1Nc1ncc(Br)c(Nc3ccc4nccnc4c3P(C)(C)=O)n1)-c1cnn(C)c1CCN2C1CC1` [Compound 74], the IC50 in the test with A431 cells (EGFR WT) (setting [3]) was 100 to 1000 nM; in test [1] (setting [4]) it was below 10 nM; in test [2] (setting [5]) it was below 10 nM.
Consider `COc1cc2c(cc1Nc1ncc(Br)c(Nc3ccc4nccnc4c3P(C)(C)=O)n1)-c1cnn(C)c1CCN2C1CN(C(C)C)C1` [Compound 63], for which the IC50 was 10 to 50 nM in the test with A431 cells (EGFR WT) (setting [3]), below 10 nM in test [1] (setting [4]) and below 10 nM in test [2] (setting [5]).
Regarding `COc1cc2c(cc1Nc1ncc(C)c(Nc3ccc4nccnc4c3P(C)(C)=O)n1)-c1cnn(C)c1CCN2C(C)C` [Compound 85], the IC50 in the test with A431 cells (EGFR WT) (setting [3]) was 100 to 1000 nM; in test [1] (setting [4]) it was below 10 nM; in test [2] (setting [5]), below 10 nM.
As for `COc1cc2c(cc1Nc1ncc(Br)c(Nc3ccc4nccnc4c3P(C)(C)=O)n1)-c1cnn(C)c1CCN2C1CCN(C)CC1` [Compound 62], the IC50 in the test with A431 cells (EGFR WT) (setting [3]) was 10 to 50 nM; in test [1] (setting [4]) it was below 10 nM; in test [2] (setting [5]) it was below 10 nM.
`CCN1CCc2c(cnn2C)-c2cc(Nc3ncc(Br)c(Nc4ccc5nccnc5c4NS(C)(=O)=O)n3)c(OC)cc21` [Compound 139]: the values for the IC50 (in the test with A431 cells (EGFR WT) (setting [3]); in test [1] (setting [4]); in test [2] (setting [5])) were 100 to 1000 nM, below 10 nM and below 10 nM, respectively.
As for `COc1cc2c(cc1Nc1ncc(Br)c(Nc3ccccc3P(C)(C)=O)n1)-c1cnn(C)c1CCN2C1COC1` [Compound 64], the IC50 with A431 cells (EGFR WT) (setting [3]) is 100 to 1000 nM; in test [1] (setting [4]) it was 10 to 50 nM; in test [2] (setting [5]), below 10 nM.
As to `COc1cc2c(cc1Nc1ncc(Br)c(Nc3ccc4nccnc4c3P(C)(C)=S)n1)-c1cnn(C)c1CCN2C1CC2(C1)CN(C)C2` [Compound 93], the IC50 in the test with A431 cells (EGFR WT) (setting [6]) was 10 to 50 nM; in test [1] (setting [7]) it was 10 to 50 nM; in test [2] (setting [8]), below 10 nM.
Take `COc1cc2c(cc1Nc1ncc(Br)c(Nc3ccc4nccnc4c3NS(C)(=O)=O)n1)-c1cnn(C)c1CCN2CC(C)C` [Compound 133]: the IC50 in the test on A431 cells (EGFR WT) (setting [3]) was 100 to 1000 nM; in test [1] (setting [4]), below 10 nM; in test [2] (setting [5]), below 10 nM.
Take `COc1cc2c(cc1Nc1ncc(Br)c(Nc3ccc4nccnc4c3P(C)(C)=O)n1)-c1cnn(C)c1CCN2C1CC2(C1)CN(C)C2` [Compound 89]: the IC50 (with A431 cells (EGFR WT) (setting [3]); in test [1] (setting [4]); in test [2] (setting [5])) was 10 to 50 nM throughout.
Consider `COc1cc2c(cc1Nc1ncc(Br)c(Nc3ccc4nccnc4c3P(C)(C)=O)n1)-c1cnn(C)c1CCN2C` [Compound 1], for which the IC50 was 50 to 100 nM in the test with A431 cells (EGFR WT) (setting [3]), below 10 nM in test [1] (setting [4]) and below 10 nM in test [2] (setting [5]).
In the case of `COc1cc2c(cc1Nc1ncc(Br)c(Nc3ccccc3N(C(C)C)S(C)(=O)=O)n1)-c1cnn(C)c1CCN2C(C)C` [Compound 124], the IC50 in the test with A431 cells (EGFR WT) (setting [3]) was above 1000 nM; in test [1] (setting [4]) it was 10 to 50 nM; in test [2] (setting [5]) it was 10 to 50 nM.
Take `COc1cc2c(cc1Nc1ncc(Br)c(Nc3ccc4nccnc4c3NS(C)(=O)=O)n1)-c1cnn(C)c1CCN2` [Compound 114]: the IC50 was 100 to 1000 nM with A431 cells (EGFR WT) (setting [6]), below 10 nM in test [1] (setting [7]) and below 10 nM in test [2] (setting [8]).
For the compound `COc1cc2c(cc1Nc1ncc(Br)c(Nc3ccc4nccnc4c3P(C)(C)=O)n1)-c1cnn(C)c1CCN2C1CCOCC1` [Compound 88], the IC50 is 50 to 100 nM with A431 cells (EGFR WT) (setting [3]), below 10 nM in test [1] (setting [4]) and below 10 nM in test [2] (setting [5]).
Consider `COc1cc2c(cc1Nc1ncc(Br)c(Nc3ccc4nccnc4c3P(C)(C)=O)n1)-c1cnn(C)c1CCN2C1CC2(C1)CN(C(C)C)C2` [Compound 90], for which the IC50 is 10 to 50 nM in the test on A431 cells (EGFR WT) (setting [3]), below 10 nM in test [1] (setting [4]) and below 10 nM in test [2] (setting [5]).
Turning to `COc1cc2c(cc1Nc1ncc(Br)c(Nc3ccccc3P(C)(C)=O)n1)-c1cnn(C)c1CCC2N` (stereo not drawn) [Compound 50], the figures for the IC50 (in the test on A431 cells (EGFR WT) (setting [6]); in test [1] (setting [7]); in test [2] (setting [8])) were 100 to 1000 nM, 10 to 50 nM and 10 to 50 nM, respectively.
Turning to `COc1cc2c(cc1Nc1ncc(Br)c(Nc3ccc4nccnc4c3P(C)(C)=O)n1)-c1cnn(C)c1CCN2C1CN(CC2CC2)C1` [Compound 70], the figures for the IC50 (in the test with A431 cells (EGFR WT) (setting [3]); in test [1] (setting [4]); in test [2] (setting [5])) were 10 to 50 nM, below 10 nM and below 10 nM, respectively.
For `COc1cc2c(cc1Nc1ncc(Br)c(Nc3ccccc3P(C)(C)=O)n1)-c1cnn(C)c1CCN2C1CN(CCF)C1` [Compound 69], the IC50 in the test on A431 cells (EGFR WT) (setting [3]) was 100 to 1000 nM; in test [1] (setting [4]) it was below 10 nM; in test [2] (setting [5]), below 10 nM.
Take `COc1cc2c(cc1Nc1ncc(Br)c(Nc3ccc4nccnc4c3P(C)(C)=O)n1)-c1cnn(C)c1CCN2C1CCN(C)CC1F` (stereo not drawn) [Compound 67]: the IC50 is 50 to 100 nM in the test on A431 cells (EGFR WT) (setting [3]), below 10 nM in test [1] (setting [4]) and below 10 nM in test [2] (setting [5]).
On to `COc1cc2c(cc1Nc1ncc(Br)c(Nc3ccc4nccnc4c3P(C)(C)=O)n1)-c1cnn(C)c1CCN2C1CCCN(C)C1` (stereo not drawn) [Compound 84], for which the IC50 was 10 to 50 nM in the test with A431 cells (EGFR WT) (setting [3]), below 10 nM in test [1] (setting [4]) and below 10 nM in test [2] (setting [5]).
Consider `COc1cc2c(cc1Nc1ncc(Br)c(Nc3ccc4nccnc4c3P(C)(C)=S)n1)-c1cnn(C)c1CCN2C1CCN(C)CC1` [Compound 76], for which the IC50 in the test on A431 cells (EGFR WT) (setting [6]) is 50 to 100 nM; in test [1] (setting [7]), below 10 nM; in test [2] (setting [8]), below 10 nM.
For `COc1cc2c(cc1Nc1ncc(Br)c(Nc3ccccc3P(C)(C)=O)n1)-c1cnn(C)c1CCN2C1CN(C)C1` [Compound 59], the IC50 lay in the range of 100 to 1000 nM in the test on A431 cells (EGFR WT) (setting [3]), 10 to 50 nM in test [1] (setting [4]) and 10 to 50 nM in test [2] (setting [5]).
For `COc1cc2c(cc1Nc1ncc(Cl)c(Nc3ccc4nccnc4c3P(C)(C)=O)n1)-c1cnn(C)c1CCN2C` [Compound 13], the IC50 with A431 cells (EGFR WT) (setting [3]) was 50 to 100 nM; in test [1] (setting [4]), below 10 nM; in test [2] (setting [5]), below 10 nM.
Regarding `CNS(=O)(=O)c1ccccc1Nc1nc(Nc2cc3c(cc2OC)N(C(C)C)CCc2c-3cnn2C)ncc1Br` [Compound 127], the IC50 (in the test on A431 cells (EGFR WT) (setting [3]); in test [1] (setting [4]); in test [2] (setting [5])) was 100 to 1000 nM each time.
With `COc1cc2c(cc1Nc1ncc(Br)c(Nc3ccccc3NS(C)(=O)=O)n1)-c1cnn(C)c1CCN2C` [Compound 32], the IC50 is 100 to 1000 nM with A431 cells (EGFR WT) (setting [3]), below 10 nM in test [1] (setting [4]) and below 10 nM in test [2] (setting [5]).
